Common to all, as to assay type: physicochemical
Series [1] is described as follows: UV-vis absorption spectrum of the caged compound. To be noted: for ε390: 390 nm; for ε400: 400 nm. Here is the method:
The caged compound (1 mM) was rapidly dissolved in the buffer solution (150 mM NaCl, 1 mM CaCl2, 10 mM HEPES; the pH was adjusted to 7.4 using 5 N NaOH), and the solution was immediately transferred to a cuvette (4 mL volume, 10 mm path length) and placed in an absorption spectrometer (OLIS-14C) at 22° C. Whole spectra were recorded between 1 and 240 min after the compound was dissolved (FIGS. 1 and 7).

Series [2] can be described thus: Solubility in water or the buffers used. To be noted: physiological conditions.
Series [3] in a line: Hydrolysis in the dark (thermal stability, UV-vis spectra). To be noted: for hydrolysis at room temperature: HEK buffer pH 7.4, protected from light, 2 h; for hydrolysis on storage: buffer pH 7.4, −20° C. in the dark; for stability in water: pH 7.4 and 22° C. / physiological conditions, in the dark.
A short description of series [4]: Laser-flash photolysis (transient spectral measurements). The note with it: for time to release the amino acid on photolysis: aqueous solution, visible region; for time constant of single-exponential absorbance decay at 460 nm: light pulse ≧400 nm, 0.8 mM, HEK buffer pH 7.4, 22° C. Here is the method:
[…] The energy of the beam was measured using a Molectron (Portland, Oreg.) joule meter. Light of≧400 nm produced by fluorescence from 4.9×10^−4 M Exalite 404 dye (Exciton Inc., Dayton, Ohio) was used to initiate photolysis. The decay of the transient intermediate absorbance was recorded by digitizing the photomultiplier output at rates up to 2 MHz. The transient absorption changes were monitored at a wavelength where there was significant change in the absorption on irradiation of the caged compound (ca. 460 nm). All photolysis rates and quantum yields were measured at room temperature. Nonlinear least-squares fitting of single exponential decays was used to determine the photolysis rate constants.

Series [5] can be described thus: Quantum yield of photolysis. To be noted: ≧400 nm, 250 μM, extracellular buffer pH 7.4, 22° C. The method, then:
The quantum yield for the caged compound was determined by actinometric methods (Murov, in Dekker, ed., Handbook of Photochemistry, New York, pp. 298-305 (1993), which is hereby incorporated by reference in its entirety). The Oriel (Oriel Instruments, Stratford, Conn.) lamp used for photolysis was equipped with a filter (Schott glass filter GG400; Schott North America, Inc., Elmsford, N.Y.) to eliminate light at wavelengths below 400 nm.
The quantum yield was also determined using the method published by Milburn et al., “Synthesis, Photochemistry, and Biological Activity of a Caged Photolabile Acetylcholine Receptor Ligand,” Biochemistry 28:49-55 (1989), which is hereby incorporated by reference in its entirety. For measuring the quantum yield of DECM-caged glutamate photolysis, 3 mL sample of 4 (Scheme 1) was photolyzed with repetitive light pulses at≧400 nm, and the concentration of 2 (Scheme 1) was determined spectrophotometrically. For measuring the quantum yield of DECM-caged glycine photolysis, 3 mL sample of 4 (Scheme 2) was photolyzed with repetitive light pulses at≧400 nm, and the concentration of 2 (Scheme 2) was determined spectrophotometrically. […]

Values joined by “and” are separate entries in the source; they are usually repeats but may differ in a detail not shown here. Equal entries are not always repeated. “Also recorded” adds a separate entry of the source.

Take `CCN(CC)c1ccc2c(COC(=O)CCC(N)C(=O)O)cc(=O)oc2c1` (centres unmarked) [DECM-caged glutamate, (7-N,N-Diethylaminocoumarin-4-yl)-methyl-glutamate-trifluoroacetate]: in series [1], the “major absorption band maximum” value is listed as 390 nm, the ε390 came to 13651 M⁻¹ cm⁻¹ and the ε400 is 12232 M⁻¹ cm⁻¹. Further, the solubility in water result in series [2] is reported as “sufficiently soluble in water or the buffers used; also recorded: water soluble”. Further, in series [3], the “hydrolysis at room temperature” value was “very little hydrolysis” and the stability in water entry is “stable in the dark”. Also, the hydrolysis on storage result in series [3] (24 h) is on record as “No measurable hydrolysis”. In series [4], the “time to release the amino acid on photolysis” value is listed as at most 3 μs and the “time constant of single-exponential absorbance decay at 460 nm” value is on record as 3 μs. The “quantum yield of photolysis” value in series [5] is 0.11±0.008 and 0.11±0.08.
Turning to `CCN(CC)c1ccc2c(COC(=O)CN)cc(=O)oc2c1` [DECM-caged glycine, (7-N,N-Diethylaminocoumarin-4-yl)-methyl-glycine-trifluoroacetate], in series [1], the “major absorption band maximum” value is recorded as 390 nm, the ε390 turned out to be 13869 M⁻¹ cm⁻¹ and the ε400 amounted to 12427 M⁻¹ cm⁻¹. Moreover, in series [2], the solubility in water result was “water soluble”. Also, in series [3], the “hydrolysis at room temperature” value is listed as “very little hydrolysis” and the stability in water entry is listed as “stable”. Also, the hydrolysis on storage entry in series [3] (20 h) is “No measurable hydrolysis”. In series [4], the “time to release the amino acid on photolysis” value is listed as at most 2.6 μs and the “time constant of single-exponential absorbance decay at 460 nm” value came out at 2.6 μs. Besides, in series [5], the “quantum yield of photolysis” value was 0.12±0.009.

The values are drawn from patent publication US8053585B2, “Protecting group for carboxylic acids that can be photolyzed by visible light” (Cornell Research Foundation, Inc., priority 2006, dated 2011).
